Series [1] is described as follows: In vitro metabolic study in human liver microsome incubation system. The following applies: for Concentration of the compound to be tested (parent): human liver microsomes 0.5 mg protein/mL, NADPH, 37° C. As for the experimental part: Instruments, conditions and parameters: liquid chromatography-mass spectrometry system (LC/MS/MS, Shimadzu LC 30-AD, MS API 4000); the chromatographic column was ACQUITY UPLC BEH C18 column (1.7 μm 2.1×50 mm Column, Part No. 186002350); the mobile phase was acetonitrile-water-formic acid (50:50:0.1); the flow rate was 0.7 mL/min; the injection volume was 5μL; the column temperature was room temperature. An electrospray ionization (ESI) source was adopted with a spray voltage of 4.8 KV; the capillary temperature (TEM) was 300° C.; the sheath gas was N2, and the flow rate was 10 psi; the auxiliary gas was N2, and the flow rate was 1 psi; the collision-induced dissociation (CID) gas was Ar, and the pressure was 1.5 mTorr. The mass spectrometry scan mode was mass spectrometry multiple reaction monitoring (MRM), and the positive ion mode was used for detection.
About 10 mg of each of the samples to be tested was precisely weighed out and dissolved in 0.1 mL of DMSO, and the solution was stepwise diluted with purified water to prepare 10 μM and 1 μM standard stock solutions. In an ice bath, the detection incubation system was prepared according to Table 3. NADPH was added to the incubation system (see Table 4 for its composition) to start a reaction, and 50 μL of the resulting mixture was taken immediately and added to 150 μL of acetonitrile as a time-zero sample and a 1 μM standard curve sample. Another 1 μM standard stock solution was added to the incubation system, and 50 μL of the resulting mixture was taken immediately and added to 150 μL of acetonitrile as a 0.1 μM standard curve sample. […] Each sample was shaken and centrifuged at 18,000 g for 10 min, and a sample of the supernatant was taken and injected for LC/MS/MS analysis.
(In general: Liver microsomes are a subcellular fraction often used to study metabolism.)

Series [2] has as its target hERG potassium channel (Homo sapiens, UniProt Q12809). As to the kind of experiment: Manual patch clamp assay of hERG potassium channel current in CHO-hERG cells. In general terms: The patch-clamp technique gives a direct electrical read-out from membranes.
Description: The manual patch clamp method was used to measure the effect of the compounds on hERG potassium channel current stably expressed in Chinese hamster ovary cells.
Manual patch clamp assay method:
CHO-hERG cells in the exponential growth phase were collected and resuspended in ECS (extracellular solution) for later use. The cells were seeded in a cell recording chamber, and the chamber was placed on the stage of an inverted microscope. One of the cells in the tank was randomly selected for testing. The perfusion system was fixed onto the stage of the inverted microscope, and the cell was perfused continuously with ECS. […]
The clamping voltage was −80 mV. […] The peak value of the tail current was measured and used for analysis. […] In the initial stage of recording the perfusion with the solvent control working solution, the peak value of the tail current was monitored until 3 or more scanning curves were stabilized, and then perfusion was performed with the test sample/positive control working solution to be tested until the inhibitory effect of the test sample/positive control working solution on the peak value of the hERG current reached a stable state.
The hERG current was recorded under the whole cell patch clamp technology at room temperature. […] Data were collected and recorded by Patchmaster Pro software and processed using Origin 8E software, and hERG IC50 values were calculated.
A short description of series [3]: Saturation solubility by external standard HPLC method. The following applies: thermodynamic from solid; purified water, 25° C., stirred 24 h. The class given is physicochemical. As for the experimental part:
Preparation of an external standard solution: 50 mg of a compound to be tested was precisely weighed out, added to a 10 mL volumetric flask, and dissolved in a proper amount of purified water by ultrasonication. The solution was diluted to volume and mixed well to give an external standard solution with a concentration of 5.0 mg/mL.
The solution was stirred for dissolution for 24 h at 25° C. and centrifuged. The supernatant was taken and filtered through a 0.45 μm filter membrane, and the filtrate was collected. 1 mL of the filtrate described above was precisely measured out and added to a 5 mL measuring flask. Purified water was added to dilute the filtrate to volume, and the solution was mixed well to give a solution to be tested.
2. Determination of Saturation Solubility by External Standard Method
Chromatographic Conditions
Chromatographic column: Waters XBridge C8 3.5 μm 4.6×100 mm NRT2019-21#, column temperature: 45° C., detection wavelength: 205 nm;
Mobile phase A: a 10 mM/L (NH4)2HPO4 solution, mobile phase B: acetonitrile, isocratic elution A:B=40:60, flow rate: 1.0 mL/min;
Injection volume: 10 μL, run time: 10 min.
Purified water was used as a blank control solution, and the peak areas of the external standard solution and the standard solution were measured using a high performance liquid chromatograph with a UV detector and denoted as Aexternal standard and Ato be tested, respectively.

The conditions of series [4]: in the human body; cited from earlier work.

The structures appear in SMILES notation. pIC50: −log10 of the molar value. Counter-ions that a name gives are not always drawn.

Chain of hERG potassium channel (Q12809 whole entry): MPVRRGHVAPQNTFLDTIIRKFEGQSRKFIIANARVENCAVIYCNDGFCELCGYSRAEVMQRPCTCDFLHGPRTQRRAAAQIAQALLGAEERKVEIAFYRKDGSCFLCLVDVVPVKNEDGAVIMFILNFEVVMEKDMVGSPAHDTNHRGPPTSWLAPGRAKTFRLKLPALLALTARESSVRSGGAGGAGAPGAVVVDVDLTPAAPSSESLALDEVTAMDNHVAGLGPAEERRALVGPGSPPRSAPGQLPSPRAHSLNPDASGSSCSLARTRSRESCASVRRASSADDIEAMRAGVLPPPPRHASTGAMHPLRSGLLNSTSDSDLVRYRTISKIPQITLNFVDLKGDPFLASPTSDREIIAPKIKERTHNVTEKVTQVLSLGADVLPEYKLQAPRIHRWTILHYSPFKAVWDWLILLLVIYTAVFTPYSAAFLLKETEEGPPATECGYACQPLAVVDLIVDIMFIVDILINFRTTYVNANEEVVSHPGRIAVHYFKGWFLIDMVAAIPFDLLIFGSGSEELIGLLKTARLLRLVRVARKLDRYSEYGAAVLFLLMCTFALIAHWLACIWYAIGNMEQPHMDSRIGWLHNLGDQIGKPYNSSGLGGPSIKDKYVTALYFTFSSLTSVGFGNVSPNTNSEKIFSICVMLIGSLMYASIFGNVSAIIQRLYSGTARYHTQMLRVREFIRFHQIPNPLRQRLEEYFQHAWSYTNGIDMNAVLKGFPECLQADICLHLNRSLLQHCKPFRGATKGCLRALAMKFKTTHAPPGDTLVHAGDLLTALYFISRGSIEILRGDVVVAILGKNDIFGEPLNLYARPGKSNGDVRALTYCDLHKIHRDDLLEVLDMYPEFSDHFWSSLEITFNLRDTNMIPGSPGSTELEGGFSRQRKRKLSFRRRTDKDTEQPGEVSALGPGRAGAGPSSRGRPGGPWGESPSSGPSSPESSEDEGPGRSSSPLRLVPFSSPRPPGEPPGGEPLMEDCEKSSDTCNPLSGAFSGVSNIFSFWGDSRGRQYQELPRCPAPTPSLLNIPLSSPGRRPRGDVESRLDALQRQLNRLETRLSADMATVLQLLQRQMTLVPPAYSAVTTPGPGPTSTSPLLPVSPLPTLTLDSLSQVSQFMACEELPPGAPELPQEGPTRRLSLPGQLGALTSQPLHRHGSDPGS

For the molecule `[2H]C(C)(C)[C@H](N)C(=O)O[C@@H]1CC[C@@]2(C)[C@@H](CC[C@@H]3[C@@H]2CC[C@]2(C)[C@@H](C(C)=O)CC[C@@H]32)C1` [Compound 1], the “Concentration of the compound to be tested (parent)” value (from here on “Concentration of the compound”) is 1000 nM in series [1] (incubation time 0 min); 956 nM in series [1] (incubation time 5 min); 874 nM in series [1] (incubation time 15 min); 575 nM in series [1] (incubation time 30 min); 423 nM in series [1] (incubation time 45 min); 352 nM in series [1] (incubation time 60 min). The pIC50 – broadly, the negative decadic logarithm of the IC50, by convention in mol/L – in series [2] was 5.71.
On to `C[C@]12CC[C@H]3[C@@H](CCC4=CC(=O)CC[C@@]43C)[C@@H]1CC[C@@H]2O` [Testosterone, testosterone], for which the “Concentration of the compound” value in series [1] (incubation time 0 min) came out at 1000 nM; in series [1] (incubation time 5 min), 677 nM; in series [1] (incubation time 15 min), 379 nM; in series [1] (incubation time 30 min) it was 155 nM; in series [1] (incubation time 45 min), 63 nM; in series [1] (incubation time 60 min), 44 nM.
For the molecule `[2H]C(C)(C)[C@H](N)C(=O)O[C@@H]1CC[C@@]2(C)[C@@H](CC[C@@H]3[C@@H]2CC[C@]2(C)[C@@H](C(C)=O)CC[C@@H]32)C1` [Compound 1 hydrochloride], the solubility (commonly the dissolved amount per volume that the medium holds) at 24 h in series [3] came to 31.2 mg/mL.
In the case of `CC(=O)[C@H]1CC[C@H]2[C@@H]3CC[C@H]4C[C@H](OC(=O)[C@@H](N)C(C)C)CC[C@]4(C)[C@H]3CC[C@]12C` [Comparative compound 1], the “Concentration of the compound” value in series [1] (incubation time 0 min) came out at 1000 nM; in series [1] (incubation time 5 min), 801 nM; in series [1] (incubation time 15 min), 680 nM; in series [1] (incubation time 30 min) it was 484 nM; in series [1] (incubation time 45 min), 306 nM; in series [1] (incubation time 60 min), 256 nM. The “concentration of allopregnanolone resulting from metabolism reaching a stable level (in words)” value in series [1] (liver microsome system) is recorded as “unable to achieve a stable level”. In addition, the pIC50 in series [2] is 6.11.
As to `CC(=O)[C@H]1CC[C@H]2[C@@H]3CC[C@H]4C[C@H](OC(=O)[C@@H](N)C(C)C)CC[C@]4(C)[C@H]3CC[C@]12C` [Comparative compound 1 hydrochloride], in series [3], the solubility at 24 h is 29.9 mg/mL.
Consider `[2H]C(N)(C(=O)O[C@@H]1CC[C@@]2(C)[C@@H](CC[C@@H]3[C@@H]2CC[C@]2(C)[C@@H](C(C)=O)CC[C@@H]32)C1)C(C)C` (stereo partly drawn) [Compound 3 hydrochloride], for which the solubility at 24 h in series [3] was found to be 19 mg/mL.
As for `CC(=O)[C@H]1CC[C@H]2[C@@H]3CC[C@H]4C[C@H](O)CC[C@]4(C)[C@H]3CC[C@]12C` [Allopregnanolone, 3α-OH-5α-pregnan-20-one], the “Concentration of the compound” value is 1000 nM in series [1] (incubation time 0 min); 626 nM in series [1] (incubation time 5 min); 414 nM in series [1] (incubation time 15 min); 259 nM in series [1] (incubation time 30 min); 150 nM in series [1] (incubation time 45 min); 119 nM in series [1] (incubation time 60 min). Moreover, the solubility at 24 h in series [3] is < 0.01 mg/mL. In series [4], the plasma half-life result was “about 45 minutes”.
`O=C(O)Cc1ccccc1Nc1c(Cl)cccc1Cl` [Diclofenac, diclofenac]: the “Concentration of the compound” value in series [1] (incubation time 0 min) came out at 1000 nM; in series [1] (incubation time 5 min) it was 374 nM; in series [1] (incubation time 15 min) it was 77 nM; in series [1] (incubation time 30 min), 8 nM; in series [1] (incubation time 45 min), 1 nM; in series [1] (incubation time 60 min) it was 1 nM.
Molecule `[2H]C([2H])([2H])C([C@H](N)C(=O)O[C@@H]1CC[C@@]2(C)[C@@H](CC[C@@H]3[C@@H]2CC[C@]2(C)[C@@H](C(C)=O)CC[C@@H]32)C1)C([2H])([2H])[2H]` [Compound 2 hydrochloride] showed a solubility at 24 h in series [3] of 36.1 mg/mL.

(Values after patent US20240383942A1, “WATER-SOLUBLE ALLOPR[…], AND PREPARATION METHOD THEREFOR AND USE THEREOF” (NANJING MINOVA PHARMACEUTICAL CO., LTD., priority 2021, published 2024).)
